One series deals with B16-F10 cells. As to the kind of experiment: in vitro cytotoxicity against B16-F10 murine melanoma cells (neutral red, 72 hours). It is filed as cell-based. As to conditions: for IC50: Mus musculus, read-out: Cytotoxicity vs B16 IC50. As for the experimental part:
(§1) BU-3129T (3,7-dihydroxytropolone) and its analogs were tested for in vitro cytotoxicity against logarithmically growing murine melanoma tumor cells in liquid culture. B16-F10 cells (4×10^4 cells) in the enriched MEM (Minimum essential medium (Eagle's)) containing test material solution were planted into wells of 96-well microtiter plates and incubated at 37° C., with 5% CO2 under high humidity for 72 hours. After staining with neutral red, cytotoxicity of test material was determined colorimetrically. The inhibitory effects on macromolecule biosynthesis were examined in cultured L1210 leukemia cells. L1210 cells (5×10^5 cells) were exposed to radioactive precursors (^3 H-thymidine, ^14 C-uridine and ^3 H-leucine) for 60 min after the treatment with test material for 15 min. The incorporated radioactivities into acid-insoluble fractions were measured by using a liquid scintillation counter. The in vivo antitumor activity of BU-3129T was determined in male BDF1 mice against leukemia P388 and melanoma B16. Leukemia P388 and melanoma B 16 were inoculated by the intraperitoneal injection at 10^6 cells and 0.5 ml of a 10% tumor brei per mouse, respectively. Test material was administered to mice intraperitoneally once daily through 1 to 9 days after tumor implantation. Tropolone and mitomycin C were comparatively tested in the experiments.

The subject of the next series is L1210 leukemia cells. Nature of the series: inhibition of macromolecule biosynthesis in cultured L1210 leukemia cells (incorporation of radioactive precursors). The class given is cell-based. To be noted: Mus musculus. As for the experimental part: as §1
Another series has as its system melanoma B16. As to the kind of experiment: in vivo antitumor activity against melanoma B16 in male BDF1 mice. As to conditions: for antitumor activity against melanoma B16: in words, mice. On the procedure:
as §1

A further series deals with leukemia P388. It is filed as in vivo, mice. To be noted: for MST / T/C: qd 1→9, ip. On the procedure:
as §1

A further series in a line: solubility. The class given is physicochemical.
Series [1] has as its system mammalian malignant tumors. As to the kind of experiment: inhibitory action against mammalian malignant tumors (summary statement). As to conditions: in words. As for the experimental part:
as §1

For series [2] the following is noted: in words; Kirst paper; cited from earlier work.
Setting [3] is: L1210, DNA, 3H-thymidine, 60 min after 15 min treatment, read-out: Inhibition of macromolecule biosynthesis vs L1210 IC50, DNA.
Where [4] appears, read: L1210, Protein, 3H-leucine, 60 min after 15 min treatment, read-out: Inhibition of macromolecule biosynthesis vs L1210 IC50, Protein.
The mark [5] stands for this setting: L1210, RNA, 14C-uridine, 60 min after 15 min treatment, read-out: Inhibition of macromolecule biosynthesis vs L1210 IC50, RNA.
The mark [6] stands for this setting: Exp. 2, 1.0 mg/kg/day, qd 1→9, ip.
Where [7] appears, read: Exp. 2, 3.0 mg/kg/day, qd 1→9, ip.
Where [8] appears, read: Exp. 2, 10 mg/kg/day, qd 1→9, ip.
The mark [9] stands for this setting: Exp. 2, 30 mg/kg/day, qd 1→9, ip.
[10] abbreviates: Exp. 1, 0.16 mg/kg/day, qd 1→9, ip.
Setting [11] is: Exp. 1, 2.5 mg/kg/day, qd 1→9, ip.
Setting [12] is: Exp. 1, 0.1 mg/kg/day, qd 1→9, ip.
Setting [13] is: Exp. 1, 0.3 mg/kg/day, qd 1→9, ip.
Where [14] appears, read: Exp. 1, 1.0 mg/kg/day, qd 1→9, ip.

≈ marks a conversion by molar mass, not a printed value. Like-named read-outs stand apart in the source and are kept apart here. Bounds are passed on as bounds.

As to `O=c1c(O)ccc(O)cc1O` [4,7-dihydroxytropolone], the “potency order in the in vitro cytotoxicity test” value (from here on “potency order”) with B16-F10 cells is “follow by 7-hydroxytropolone, 4,7-dihydroxytropolone, tropolone and 5-hydroxytropolone”. Besides, the IC50 is 0.38 µg/mL (≈ 2.47 µM) in the series on B16-F10 cells (B16-F10, 72 h); 39 µg/mL (≈ 253 µM) with L1210 leukemia cells (setting [3]); over 100 µg/mL in the series on L1210 leukemia cells (setting [4]); over 100 µg/mL in the series with L1210 leukemia cells (setting [5]).

With `O=c1cccccc1O` [Tropolone], the IC50 in the series on B16-F10 cells (B16-F10 cells, 72 hours) turned out to be 1.8 µg/mL (≈ 14.7 µM); with L1210 leukemia cells (L1210, read-out: Inhibition of macromolecule biosynthesis vs L1210 IC50, DNA), 2.2 µg/mL (≈ 18 µM); in the series with L1210 leukemia cells (L1210, read-out: Inhibition of macromolecule biosynthesis vs L1210 IC50, Protein), 9.9 µg/mL (≈ 81.1 µM); in the series with L1210 leukemia cells (L1210, read-out: Inhibition of macromolecule biosynthesis vs L1210 IC50, RNA), 20 µg/mL (≈ 164 µM). Besides, in the series on B16-F10 cells (in words), the “potency order” value was “follow by 7-hydroxytropolone, 4,7-dihydroxytropolone, tropolone and 5-hydroxytropolone”. Besides, the “Average weight change on day 5” value is given as “+2.3 g” in the series on melanoma B16 (setting [6]), “+2.5 g” in the series with melanoma B16 (setting [7]), “+3.3 g” in the series with melanoma B16 (setting [8]) and “+2.0 g” in the series with melanoma B16 (setting [9]). The MST is 19.0 days in the series on melanoma B16 (setting [6]), 17.5 days with melanoma B16 (setting [7]), 18.0 days in the series with melanoma B16 (setting [8]) and 18.0 days in the series with melanoma B16 (setting [9]). Further, the T/C amounted to 112% in the series on melanoma B16 (setting [6]), 103% in the series with melanoma B16 (setting [7]), 106% with melanoma B16 (setting [8]) and 106% in the series with melanoma B16 (setting [9]). For the same molecule, in the series on melanoma B16 (ip), the “antitumor activity against melanoma B16” value was “did not show any activity”.

As for `O=c1c(O)cccc(O)c1O` [BU-3129T, 3,7-dihydroxytropolone], the “potency order” value in the series on B16-F10 cells was “most potent”. Besides, the IC50 with B16-F10 cells (B16-F10, 72 h) was 0.04 µg/mL (≈ 0.26 µM); in the series with L1210 leukemia cells (L1210, DNA, RNA and protein together, non-specific, read-out: inhibitory effects on DNA, RNA and protein biosynthesis, IC50 values) it was 9 to 14 µg/mL (≈ 58.4 to 90.8 µM); with L1210 leukemia cells (setting [3]) it was 9.4 µg/mL (≈ 61 µM); with L1210 leukemia cells (setting [4]) it was 11 µg/mL (≈ 71.4 µM); with L1210 leukemia cells (setting [5]), 14 µg/mL (≈ 90.8 µM). Moreover, the “times more cytotoxic against B16 melanoma than tropolone and the hydroxytropolones compared” value in the series with B16-F10 cells (mouse, 4320 min) is given as 10-40 times. Moreover, the MST in the series on leukemia P388 (0.16 mg/kg/day) stood at 11.0 days; in the series on leukemia P388 (0.31 mg/kg/day), 11.0 days; with leukemia P388 (0.63 mg/kg/day), 10.0 days; with leukemia P388 (1.3 mg/kg/day), 11.0 days; in the series with leukemia P388 (2.5 mg/kg/day) it was 10.0 days; in the series with melanoma B16 (setting [10]), 16.0 days. For the same molecule, the MST in the series on melanoma B16 (Exp. 1, 0.31 mg/kg/day, qd 1→9, ip) was 18.0 days; in the series on melanoma B16 (Exp. 1, 0.63 mg/kg/day, qd 1→9, ip) it was 23.0 days; in the series on melanoma B16 (Exp. 1, 1.3 mg/kg/day, qd 1→9, ip), 29.0 days; in the series on melanoma B16 (setting [11]), 12.0 days. The T/C in the series on leukemia P388 (0.16 mg/kg/day) was 105%; in the series with leukemia P388 (0.31 mg/kg/day), 105%; with leukemia P388 (0.63 mg/kg/day), 95%; in the series on leukemia P388 (1.3 mg/kg/day), 105%; in the series on leukemia P388 (2.5 mg/kg/day), 95%; in the series with melanoma B16 (setting [10]) it was 100%. This molecule also yielded a T/C in the series with melanoma B16 (setting [11]) of 75%. In the series on leukemia P388 (in words, mice, ip), the “antitumor activity against leukemia P388” value is “no activity”. Further, the “toxicity” value in the series on melanoma B16 (Exp. 1, 5.0 mg/kg/day, qd 1→9, ip) is “tox”. Also, in the series with melanoma B16 (ip), the “antitumor activity against melanoma B16” value was “significant antitumor activity”. Also, the “Average weight change on day 5” value is “+0.4 g” in the series with melanoma B16 (mouse, in vivo, ip, 0.16 mg/kg/day); “+1.2 g” in the series with melanoma B16 (mouse, in vivo, ip, 0.31 mg/kg/day); “+1.0 g” in the series on melanoma B16 (mouse, in vivo, ip, 0.63 mg/kg/day); “+0.4 g” in the series with melanoma B16 (mouse, in vivo, ip, 1.3 mg/kg/day); -0.8 g with melanoma B16 (mouse, in vivo, ip, 2.5 mg/kg/day). Further, the solubility result in “solubility” (dimethylformamide) is “readily soluble”; in the series “solubility” (dimethylsulfoxide), “readily soluble”; in “solubility” (ethanol) it was “slightly soluble”; in the series “solubility” (methanol), “slightly soluble”; in “solubility” (other organic solvents), “practically insoluble”; in the series “solubility” (water), “slightly soluble”. In series [1], the “inhibitory action against mammalian malignant tumors” value is recorded as “marked inhibitory action”. Further, the antimicrobial activity result in series [2] was “possesses antimicrobial activity”.

Turning to `O=c1c(O)ccccc1O` [7-hydroxytropolone], in the series with B16-F10 cells, the “potency order” value was “follow by 7-hydroxytropolone, 4,7-dihydroxytropolone, tropolone and 5-hydroxytropolone”. The IC50 was 0.3 µg/mL (≈ 2.17 µM) in the series with B16-F10 cells (B16-F10, 72 h); 21 µg/mL (≈ 152 µM) in the series on L1210 leukemia cells (setting [3]); over 100 µg/mL with L1210 leukemia cells (setting [4]); 41 µg/mL (≈ 297 µM) with L1210 leukemia cells (setting [5]).

For the molecule `O=c1ccc(O)ccc1O` [5-hydroxytropolone], the “potency order” value with B16-F10 cells was “follow by 7-hydroxytropolone, 4,7-dihydroxytropolone, tropolone and 5-hydroxytropolone”. Also, the IC50 was 2.4 µg/mL (≈ 17.4 µM) in the series with B16-F10 cells (B16-F10, 72 h); over 100 µg/mL in the series with L1210 leukemia cells (setting [3]); 100 µg/mL (≈ 724 µM) in the series on L1210 leukemia cells (setting [4]); over 100 µg/mL with L1210 leukemia cells (setting [5]).

As to `CO[C@@]12[C@H](COC(N)=O)C3=C(C(=O)C(C)=C(N)C3=O)N1C[C@@H]1N[C@@H]12` [Mitomycin C], in the series with B16-F10 cells (B16-F10, 72 h), the IC50 is 2 µg/mL (≈ 5.98 µM). The MST in the series with leukemia P388 (0.08 mg/kg/day) was 12.0 days; with leukemia P388 (0.16 mg/kg/day), 15.0 days; with leukemia P388 (0.31 mg/kg/day), 16.0 days; in the series on leukemia P388 (1.3 mg/kg/day) it was 21.0 days; in the series on melanoma B16 (setting [12]), 16.0 days; with melanoma B16 (setting [13]), 22.0 days. For the same molecule, the MST in the series on melanoma B16 (setting [14]) came out at 27.0 days. The T/C in the series on leukemia P388 (0.08 mg/kg/day) stood at 114%; with melanoma B16 (setting [12]), 100%. For the same molecule, the “Average weight change on day 5” value in the series on melanoma B16 (setting [12]) is “+1.0 g”; in the series on melanoma B16 (setting [13]) it was “+0.4 g”; in the series on melanoma B16 (setting [14]), “+0.6 g”.

The values above are taken from patent publication US4833079A, “Process for producing 3,7-dihydroxytropolone and antitumor use thereof” (Bristol-Myers Company, priority 1986, dated 1989).
